The values that follow come from patent US20220133652A1, “A FORMULATION FOR IMPROVING SEIZURE CONTROL” (ZOGENIX INTERNATIONAL LIMITED, priority 2019, published 2022).

The conditions of series [1]: reason for withdrawal from the US market in 1997; cited from earlier work.
For series [2], the system named is pattern sensitivity-induced seizures. The following applies: one child; cited from earlier work.
A short description of series [3]: Serum samples of patient analyzed for fenfluramine and norfenfluramine. It counts as in vivo, human. The method, then: (§1) Fenfluramine was administered as an oral solution via a gastric feeding tube at an initial dose of 0.5 mg/kg/day for about 5 days. An echocardiogram was performed to screen for cardiac valve abnormalities (CVD) and/or pulmonary arterial hypertension (PAH) and to establish a baseline for subsequent echocardiograms which will be used to monitor the patient's cardiovascular status over the treatment period, and repeated approximately every 3 months over the next year of continuing fenfluramine administration. […] After 4 days of fenfluramine administration Patient was able to be weaned from general anesthesia without return to seizures and the immediate crisis resolved, however, seizures began to recur after 3 more days without anesthesia and the fenfluramine dosage was adjusted up to 0.8 mg/kg/day and bolus doses of valproate or phenobarbital were administered as needed. The treating physician assessed the patient as having emerged from the SRSE crisis about 2 weeks after initiation of fenfluramine therapy. The patient remains on fenfluramine, along with levetiracetam, clobazam and valproate, and was discharged from the ICU about 1 month (approximately 32 days) after initiation of fenfluramine therapy.

Series [4] deals with self-induced photosensitive seizures. The following applies: four cases; cited from earlier work.
Another series deals with refractory epilepsy. The following applies: dose of 0.5 to 1 mg/kg/day, children; cited from earlier work.
Series [5] deals with super-refractory status epilepticus. Description: Case study: fenfluramine in patient in medically-induced coma, weaning from general anesthesia. It counts as in vivo, human. The protocol:
Fenfluramine was tested on a patient with an established diagnosis Dravet Syndrome (DS) (February, 2008) and having undergone confirmatory genetic testing, they were hospitalized in November 2018 and had been in an intensive care unit (ICU) under general anesthesia for management of super-refractory status epilepticus. At the beginning of the testing period, they had been in the ICU for around 32 days, and multiple attempts to wean them from anesthetic agents (pentobarbital and ketamine) were unsuccessful, with repetitive and then continuous tonic seizures recurring within hours. Table 1, below, provides a complete list of all anti-epileptic drugs (AEDs) assayed in managing the patient's seizures. Some had been determined to lack efficacy, while those marked as current were still being administered.
After these other AEDs failed, the attending physician tested fenfluramine, beginning on Dec. 19, 2018. A baseline echocardiogram was taken with the patient still in ICU setting. The patient's medications (beyond anesthetic agents) at that time included valproic acid, levetiracetam, clobazam, phenobarbital, ketosis, and VNS therapy, and felbamate was most recently added after failure of the last attempt to withdraw anesthesia.
as §1

Consider `CCNC(C)Cc1cccc(C(F)(F)F)c1` (racemic) [Fenfluramine, (RS)-N-ethyl-1-[3-(trifluoromethyl)phenyl]propan-2-amine], for which the “Adverse effects associated with use” value in series [1] is “cardiac valvular fibrosis and pulmonary hypertension”. Besides, the “Effect on self-induced seizures” value in series [2] is “successfully terminated these self-induced seizures”. For the same compound, the concentration at 20 days after start of dosing in series [3] (human, 0.8 mg/kg/day, SUB 001, Visit 1, Timepoint 99, SAE 8 Jan. 2019, fenfluramine oral solution via gastric feeding tube, read-out: Conc. in serum) was found to be 17.7 ng/mL. The concentration at 21 days after start of dosing in series [3] (human, 0.8 mg/kg/day, SUB 001, Visit 2, Timepoint 99, SAE 9 Jan. 2019, fenfluramine oral solution via gastric feeding tube, read-out: Conc. in serum) is 17.8 ng/mL. Also, in series [3] (human, 0.8 mg/kg/day, SUB 001, Visit 3, Timepoint 99, SAE 10 Jan. 2019, fenfluramine oral solution via gastric feeding tube, read-out: Conc. in serum), the concentration at 22 days after start of dosing amounted to 22.2 ng/mL. The “Response of self-induced photosensitive seizures to treatment” value in series [4] is reported as “responded to treatment”. The “Effect on number of seizures” value with refractory epilepsy is given as “reduction in the number of seizures”. In addition, the “Duration of administration after which patient was weaned from general anesthesia without return to seizures” value in series [5] (0.5 mg/kg/day oral solution via gastric feeding tube, adjunctive to other AEDs, one patient) was determined as 4 days. Moreover, the “Time after initiation of therapy until patient assessed as emerged from the SRSE crisis” value in series [5] (0.5 then 0.8 mg/kg/day, bolus valproate or phenobarbital as needed) is “about 2 weeks”. Moreover, the “Time without anesthesia until seizures began to recur” value in series [5] (after weaning, at 0.5 mg/kg/day, dose then adjusted up to 0.8 mg/kg/day) is given as 3 days. Further, the “Seizure control in patients with SRSE” value in series [5] (conclusion from the case of patient) was “improved seizure control”. Also, in series [5] (patient remains on fenfluramine with levetiracetam, clobazam and valproate), the “Time after initiation of therapy until discharge from the ICU” value was “approximately 32 days”.
For the compound `CC(N)Cc1cccc(C(F)(F)F)c1` (stereo not drawn) [Norfenfluramine], the Conc. in serum in series [3] (SUB 001, Visit 1, Timepoint 99, SAE 8 Jan. 2019, fenfluramine oral solution via gastric feeding tube) is reported as 23.8 ng/mL; in series [3] (SUB 001, Visit 2, Timepoint 99, SAE 9 Jan. 2019, fenfluramine oral solution via gastric feeding tube), 23.1 ng/mL; in series [3] (SUB 001, Visit 3, Timepoint 99, SAE 10 Jan. 2019, fenfluramine oral solution via gastric feeding tube), 27.6 ng/mL.
